Measured values: patent publication US20130039956A1, “USE OF NITROCARBOXYLIC ACIDS FOR THE TREATMENT, DIAGNOSIS AND PROPHYLAXIS OF AGGRESSIVE HEALING PATTERNS” (priority 2010, published 2013)

Experiments:
[1] = system: canine cutaneous mastocytoma cells; test: Toxin response of mast cells (mastoparan, Streptolysin O, UVB); type: cell-based; settings: preincubation 10 and 100 μmol, compared with native FA
Experimental: In order to determine membrane stabilizing and anticytotoxic properties of nitrated fatty acids, an in vitro model utilizing canine cutaneous mastocytoma cells was chosen. Cells were cultured according to standard procedure. Cytotoxic effects were quantified by measuring not only by Ca^2+ influx, histamine, and TNFα release, but also by using the MTT assay. Cell suspensions were incubated with 0.9% saline, one of the nitrocarboxylic acids as listed in table 1 or the respective native fatty acid as to achieve a final concentration of 10 and 100 μmol which was given to the medium 15 min before toxin application.
Mastoparan suspended in a buffer solution was added to the preincubated mast cell suspensions to achieve a final concentration of 10 or 30 μmol, respectively. Measurements were performed after 1 hour incubation time. […] Preincubation of mast cells with nitrated fatty acids reduced the effects on Ca^2+ influx, histamine release, and apoptosis induction in a dose-dependent manner, with an almost complete absence of apoptosis at a concentration of 100 μmol.
Streptolysin O was given to preincubated suspensions to achieve a final concentration of 500 ng/ml. Measurements were performed after 2 hours. Releases of histamine and TNFα in the suspensions were measured. After saline preincubation, a significant release of histamine and TNFα was observed.
Cell plates were exposed to a single dose (250 mJ/cm2) of UVB using a lamp (Saalmann, Herford, Germany) emitting most of its energy within the UVB range (295 to 315 nm). Tryptase levels in the supernatants were determined after 30 minutes, and concentrations of TNFα after 60 minutes. After preincubation with saline, there was a marked increase of tryptase. Preincubation with native fatty acids led to a dose-dependent reduction of tryptase release, which was significant at the lower irradiation dose but not after exposure to a high irradiation dose. […] For all nitrated fatty acids that were used the results were mostly inside the same range. Relative differences can be represented as follows: […]

[2] = system: Tracheas of adult Wistar rats; test: Tissue damage due to barotrauma ex vivo (tracheal rings); type: cell-based; settings: tracheal rings bathed 15 minutes, balloon 4 atm 4 hours; compared with native FA; also: key: 0: not superior to native FA (control); +: Superior to native FA; ++: superior to both; +++: outstanding effect
Experimental: In order to determine the effects of nitrated fatty acids on mechanical trauma to tracheal cells, an ex vivo model was established. Tracheas of adult Wistar rats sacrificed with thiopental given intraabdominally were carefully resected (harvested). Whole (intact) tracheas were cultured in DMEM 10 (Sigma) supplemented with antibiotic/antimycotic drugs for 48 hours at 37° C. Tracheas were cut into five pieces of equal size. One piece was immediately analyzed, two were bathed in 0.9% saline, one was bathed in a solution containing native fatty acid in SDS (1%), and one was bathed in a solution containing nitro fatty acid, respectively, for 15 minutes each. The inner diameters of the tracheal rings were measured. A non-compliant balloon catheter for use in vascular interventions was chosen, so that the nominal balloon diameter was 15-20% larger than that of the trachea. One tracheal ring pretreated with 0.9% saline was left untreated; the other prepared tracheal rings were mounted on the balloon catheter, which was inflated to a pressure of 4 atm thereafter. Balloons were kept inflated for 4 hours, while being positioned in the culture medium. Thereafter, the tracheal rings were further cultivated in separate vials for 24 hours. In a separate set of investigations, sense/antisense ODNs for HO-1 (Invitrogen) directed against the translation initiation codon in the HO-1 cDNA was used to inhibit hemoxydase-1 synthesis. The cells were transfected using the Superfect transfection reagent (Qiagen) before traumatization. In another set of experiments, the HO inhibitor SnPP IX (Porphyrin Products, London, UK) was added to the culture medium 6 hours before traumatization at a dose of 10 micromol.
For analysis, the rings were cut into small strips using a no touch technique. Viability was tested using a MTT assay and apoptosis using a TUNEL assay. Anti-HO-1 antibodies (StressGen, Tebu, Le-Perray-en-Yvelines, France) were measured by Western blot and immunohistochemistry.

[3] = target: T1, TRPV-1 (Mus musculus, UniProt Q704Y3); test: Signal transduction of receptors of the TRP-protein family in retinal slices; type: cell-based, mice; settings: 10 and 50 μmol, capsaicin 10 μmol or acid pH; compared with native FA; also: key: 0: not superior to native FA (control); +: Superior to native FA; ++: superior to both; +++: outstanding effect
T1 construct: Whole retinas were isolated and cut into 100 μm slices using a tissue slicer; from tissue; host or cells: mouse retinal slices (100 μm)
T1 sequence (Q704Y3 whole entry): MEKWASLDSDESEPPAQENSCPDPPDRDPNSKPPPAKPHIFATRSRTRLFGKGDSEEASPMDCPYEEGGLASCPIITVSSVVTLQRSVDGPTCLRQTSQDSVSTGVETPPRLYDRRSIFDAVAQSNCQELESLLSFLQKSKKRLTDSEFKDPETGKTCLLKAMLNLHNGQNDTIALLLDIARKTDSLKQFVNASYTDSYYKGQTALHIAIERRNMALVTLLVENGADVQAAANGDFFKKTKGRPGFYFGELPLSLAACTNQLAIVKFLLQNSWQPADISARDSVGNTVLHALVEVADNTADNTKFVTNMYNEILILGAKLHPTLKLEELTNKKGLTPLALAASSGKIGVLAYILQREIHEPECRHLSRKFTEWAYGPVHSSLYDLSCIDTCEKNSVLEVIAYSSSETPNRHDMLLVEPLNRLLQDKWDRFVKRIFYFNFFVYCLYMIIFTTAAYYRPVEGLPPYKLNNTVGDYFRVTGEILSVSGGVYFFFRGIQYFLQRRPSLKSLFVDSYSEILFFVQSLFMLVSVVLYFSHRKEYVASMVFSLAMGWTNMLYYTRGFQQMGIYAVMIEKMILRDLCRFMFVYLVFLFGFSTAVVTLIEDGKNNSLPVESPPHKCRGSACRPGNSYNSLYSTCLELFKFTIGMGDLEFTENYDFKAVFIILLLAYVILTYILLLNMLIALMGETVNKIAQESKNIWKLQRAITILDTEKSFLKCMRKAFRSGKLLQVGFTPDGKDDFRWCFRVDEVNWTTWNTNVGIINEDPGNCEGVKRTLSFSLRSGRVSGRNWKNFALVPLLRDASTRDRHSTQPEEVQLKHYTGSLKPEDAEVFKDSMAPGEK
Experimental: In order to determine the effect of nitrated fatty acids on receptor signal transduction, an in vitro model was used. Retinal slices from cadaver mice were prepared as described by Snellman and Nawy (Snellman J. Nawy S (2004). cGMP-dependent kinase regulates response sensitivity of the mouse on bipolar cell. J Neurosci 24:6621-6628). Whole retinas were isolated and cut into 100 μm slices using a tissue slicer and than transferred to the recording chamber. The chamber was continuously perfused with Ames media and oxygenated. Picrotoxin (100 μM), strychnine (10 μM), and TPMPA (50 μM) were added. Each nitro fatty acid was added in two experiments to achieve a final concentration of 10 μmol, and in another two experiments to achieve a final concentration of 50 μmol. In two experiments, the corresponding native fatty acid was added to achieve a final concentration of 10 and 50 μmol, and in two experiments saline solution was added which served as controls. Currents were measured via tissue electrodes and monitored throughout the investigation. After incubating the solution for 2 hours, the TRPV-1 agonist capsaicin was added to achieve a final concentration of 10 μmol. Experiments were performed using either 10 mmol Hepes or 10 mmol Mes adjusting the pH of the solution to 6.4 or 4.4, respectively. Furthermore, experiments were performed without or with preincubation (5 minutes) of the TRPV-1 antagonist capsazepine. The solution temperature was held constant at 35° C.

[4] = system: human corneal fibroblasts; test: Model for fibrosis induction (3D corneal stroma, TGF-β1); type: cell-based; settings: TGF-β1 over 7 days; compared with native FA; also: key: 0: not superior to native FA (control); +: Superior to native FA; ++: superior to both; +++: outstanding effect
Experimental: Cornea injury may ultimately lead to a scar by way of corneal fibrosis, which is characterized by the presence of myofibroblasts and improper deposition of extracellular matrix components (ECM). An established in vitro model to study the healing response to trauma of corneal stroma was used. The in vitro 3-dimensional (3D) model of a corneal stroma was produced by human corneal fibroblasts stimulated with stable vitamin C which mimics corneal development. TGF-β1 was added to the medium over 7 days. […] There were no morphological changes of the myofibroblasts when treated with nitro fatty acids.

Molecule | Relative differences: effect on toxin response of mast cells [1] | Relative effect on tissue damage due to barotrauma [2] | Relative effect on TRPV-1 signal transduction (current response) [3] | Relative efficacy in model for fibrosis induction [4]
5-nitro-eicosatrienoic acid [compound 4] | + |  |  | 
9,10-nitro-cis-oleic acid [compound 10] | +++ | ++ | ++ | ++
9,10-nitro-trans-oleic acid [compound 15] | ++ | + |  | +
CCCCCCCC/C=C(/CCCCCCCC(=O)O)[N+](=O)[O-] [compound 1, 9-nitro cis-oleic acid] | +++ | ++ | ++ | ++
CCCCC/C=C\C/C(=C\CCCCCCCC(=O)O)[N+](=O)[O-] [compound 2, 10-nitro-cis-linoleic acid] | ++ | + | ++ | ++
CCCCCCCC/C(=C/CCCCCCCC(=O)O)[N+](=O)[O-] [compound 3, 10-nitro-cis-oleic acid] | +++ | + | ++ | +
CCCCC/C=C(/C/C=C\C/C=C\C/C=C\C/C=C\CCC(=O)O)[N+](=O)[O-] [compound 5, 16-nitro-all-cis-4,7,10,13,16-docosapentaenoic acid] | + |  |  | 
CC/C=C\C/C=C\C/C=C(/CCCCCCCC(=O)O)[N+](=O)[O-] [compound 6, 9-nitro-all-cis-9-12,15-octadecatrienoic acid] | ++ | + | + | ++
CC/C=C\C/C=C\C/C(=C/C/C=C\C/C=C\CCCCCC(=O)O)[N+](=O)[O-] [compound 7, 14-nitro-all-cis-7,10,13,16,19-docosapentaenoic acid] | ++ |  |  | 
CCCCCCCC/C=C(/CCCCCCCCCCCCCC(=O)O)[N+](=O)[O-] [compound 8, 15-nitro-cis-15-tetracosenoic acid] | + | + |  | +
CCCCCCCC/C=C(\CCCCCCCC(=O)O)[N+](=O)[O-] [compound 9, 9-nitro-trans-oleic acid] | ++ |  |  | 
CCCCC=C(C=CC=CCCCCCCCC(=O)O)[N+](=O)[O-] [compound 11, 13-nitro-octadeca-9,11,13-trienoic acid] | + | + |  | +
CCCCCCCC/C(=C\CCCCCCCC(=O)O)[N+](=O)[O-] [compound 12, 10-nitro-trans-oleic acid] | ++ |  |  | 
CCCCCC=CCC=C(CC=CCC=CCCCC(=O)O)[N+](=O)[O-] [compound 14, 11-nitro-5,8,11,14-eicosatrienoic acid] |  | + |  | +
CCCCCC/C=C(\CCCCCCCC(=O)O)[N+](=O)[O-] [compound 16, 9-nitro-9-trans-hexadecenoic acid] | ++ |  |  | 
CCCCCCCC/C=C(/CCCCCCCCCCCC(=O)O)[N+](=O)[O-] [compound 17, 13-nitro-cis-13-docosenoic acid] | + |  |  | 
CCCCC/C=C(/C/C=C\C/C=C(/C/C=C\CCCC(=O)O)[N+](=O)[O-])[N+](=O)[O-] [compound 18, 8,14-nitro-cis-5,8,11,14-eicosatetraenoic acid] | 0 |  |  | 
CCC=CCC=C(CC=CCC=CCC=CCC=C(CCC(=O)O)[N+](=O)[O-])[N+](=O)[O-] [compound 19, 4,16-nitro-docosahexaenoic acid] | 0 |  |  | 
CCCCCC=CCC=C(CC=CC/C=C\CCCC(=O)O)[N+](=O)[O-] [compound 22, 11-nitro-cis-5,8,11,14-eicosatetraenoic acid] | ++ | + | + | ++
